Results taken from patent US5286648A, “A84575 antibiotics” (Eli Lilly and Company, priority 1991, dated 1994).
≈ marks a conversion by molar mass, not a printed value. Like-named read-outs stand apart in the source and are kept apart here. Where a SMILES comes first, the peptide text is derived from it. Bridges are numbered along the chain shown (N, C = ends). [ ]: non-standard residue; d: D form. The star is where a group is joined. Ileψ(thiazoline)Cys = CC[C@H](C)[C@H](N)C1=N[C@H](C(=O)*)CS1; dOrn = NCCC[C@@H](N)C(=O)O

Assays:
culture A84575 [1] = test: Resistance of culture A84575 to antibiotics (antibiotic sensitivity discs, ISP No. 2 agar); assay type: cell-based, Streptosporangium carneum; settings: disc
Procedure: Resistance to antibiotics was measured by padding antibiotic sensitivity discs (Difco) onto the surface of seeded ISP No. 2 agar plates. Resistance was scored as (+) when no zone of inhibition was observed, and as (-) when a zone of inhibition was observed.

Streptococcus D = test: In vitro antibacterial activity (Table 5), MIC; assay type: cell-based
Streptococcus pneumoniae = test: In vitro antibacterial activity (Table 5), MIC; assay type: cell-based, S. pneumoniae; settings: strain PARK
Haemophilus influenzae = test: In vitro antibacterial activity (Table 5), MIC; assay type: cell-based
[2] = tested on: Staphylococcus epidermidis; test: In vitro antibacterial activity (Table 5), MIC; assay type: cell-based, S. epidermidis
Staphylococcus aureus = test: In vitro antibacterial activity (Table 5), MIC; assay type: cell-based
Streptococcus A = test: In vitro antibacterial activity (Table 5), MIC; assay type: cell-based; settings: strain C203
culture A84575 [3] = test: Resistance of culture A84575 to antibiotics (antibiotic sensitivity discs, ISP No. 2 agar); assay type: cell-based, Streptosporangium carneum; settings: 50 μg/mL

CCC[C@@H]1C[C@@H](C(=O)N[C@@H]([C@H]2O[C@H](SC)[C@H](O)[C@@H](O)[C@H]2O)[C@@H](C)O)N(C)C1 [lincomycin]
Resistance to antibiotics (culture A84575 [1]; 2 μm): resistant

CO[C@H]1/C=C/O[C@@]2(C)Oc3c(C)c(O)c4c(O)c(c(/C=N/N5CCN(C)CC5)c(O)c4c3C2=O)NC(=O)/C(C)=C\C=C\[C@H](C)[C@H](O)[C@@H](C)[C@@H](O)[C@@H](C)[C@H](OC(C)=O)[C@@H]1C [rifampin]
Resistance to antibiotics (culture A84575 [1]; 5 μm): sensitive

CO/N=C(\C(=O)N[C@@H]1C(=O)N2C(C(=O)O)=C(COC(C)=O)CS[C@H]12)c1csc(N)n1 [Standard]
MIC (Streptococcus D; strain 2041): 128 µg/mL (≈ 281 µM) | MIC (Streptococcus D; strain X66): > 128 µg/mL | MIC (Streptococcus pneumoniae): 0.015 µg/mL (≈ 0.0329 µM) | MIC (Haemophilus influenzae; Haemophilus influenzae, strain C.L., sensitive strain, read-out: MIC): 0.015 µg/mL (≈ 0.0329 µM) | MIC (Haemophilus influenzae; strain 76, resistant strain): .015 µg/mL (≈ 0.0329 µM) | MIC ([2]; strain 222): 2 µg/mL (≈ 4.39 µM) | MIC ([2]; strain 270): 8 µg/mL (≈ 17.6 µM) | MIC (Staphylococcus aureus): 16 µg/mL (≈ 35.1 µM) | MIC (Staphylococcus aureus; strain U41, read-out: MIC): 4 µg/mL (≈ 8.78 µM) | MIC (Staphylococcus aureus; strain X1.1, read-out: MIC): 2 µg/mL (≈ 4.39 µM) | MIC (Staphylococcus aureus; strain X400, read-out: MIC): 128 µg/mL (≈ 281 µM) | MIC (Streptococcus A): 0.015 µg/mL (≈ 0.0329 µM)

CC[C@H](C)[C@H](N)C1=N[C@H](C(=O)N[C@@H](CC(C)C)C(=O)N[C@H](CCC(=O)O)C(=O)N[C@H](C(=O)N[C@H]2CCCCNC(=O)[C@H](CC(N)=O)NC(=O)[C@@H](CC(=O)O)NC(=O)[C@H](Cc3cnc[nH]3)NC(=O)[C@@H](Cc3ccccc3)NC(=O)[C@H]([C@@H](C)CC)NC(=O)[C@@H](CCCN)NC2=O)[C@@H](C)CC)CS1 [bacitracin] ({Ileψ(thiazoline)Cys}-L[dE]IK[dOrn]I[dF]H[dD]N; lactam 4-C)
Resistance to antibiotics (culture A84575 [1]; 10 units): resistant

lysozyme
Sensitivity to lysozyme (culture A84575 [3]): sensitive

CC1(C)S[C@@H]2[C@H](NC(=O)Cc3ccccc3)C(=O)N2[C@H]1C(=O)O [penicillin G]
Resistance to antibiotics (culture A84575 [1]; 10 units): resistant

CO[C@H]1C[C@H](O[C@H]2[C@H](C)[C@@H](O[C@@H]3O[C@H](C)C[C@H](N(C)C)[C@H]3O)[C@@H](C)C[C@@]3(CO3)C(=O)[C@H](C)[C@@H](O)[C@@H](C)[C@@H](C)OC(=O)[C@@H]2C)O[C@@H](C)[C@@H]1O [oleandomycin]
Resistance to antibiotics (culture A84575 [1]; 15 μm): sensitive
